This passage reports IC50 results from patent US11325938B2, “CD73 inhibitors” (ORIC Pharmaceuticals, Inc., priority 2018, dated 2022).

The target of this assay is CD73 (Homo sapiens (Human), UniProt P21589). The assay is described as follows: Biochemical assay: inhibition of CD73 activity (AMP hydrolysis, Malachite Green readout). The following applies: CD73 0.3208 nM, AMP 15 μM, 25 mM Tris-HCl pH 7.4, RT, absorbance 620 nm. As to the method:
Example A1: Biochemical Assay
Assay Reaction Conditions
• Assay Volume: 70 μl • Reaction Volume: 50 μl • CD73: 0.3208 nM • AMP: 15 μM • Assay Buffer: 25 mM Tris-HCL, pH 7.4, 0.01% Brij-35, 0.01% BSA, 5 mM MgCl2 Assay Procedure:
Made dose titration of testing compounds in assay buffer, 10 points ½ log titrations in duplicates starting at 100 μM.
Added 25 μl of CD73 to each well for a final concentration of 320 pM.
Incubated at RT for 15 min.
Added 25 μl of AMP to each well for a final concentration of 15 μM.
Incubated at RT for 10 min.
Added 10 μl of Malachite Green Reagent A, incubate at RT for 10 min.
Added 10 of Malachite Green Reagent B, incubate at RT for 45 min.
Read the Absorbance on Envision plate reader using excitation filter: Cy5 […].
The ability of the compounds disclosed herein to inhibit CD73 activity was quantified and the respective IC50 values were determined. Table 2 provides the biochemical IC50 values of compounds disclosed herein.

pIC50: −log10 of the molar value.

Sequence of CD73 (P21589 27-574): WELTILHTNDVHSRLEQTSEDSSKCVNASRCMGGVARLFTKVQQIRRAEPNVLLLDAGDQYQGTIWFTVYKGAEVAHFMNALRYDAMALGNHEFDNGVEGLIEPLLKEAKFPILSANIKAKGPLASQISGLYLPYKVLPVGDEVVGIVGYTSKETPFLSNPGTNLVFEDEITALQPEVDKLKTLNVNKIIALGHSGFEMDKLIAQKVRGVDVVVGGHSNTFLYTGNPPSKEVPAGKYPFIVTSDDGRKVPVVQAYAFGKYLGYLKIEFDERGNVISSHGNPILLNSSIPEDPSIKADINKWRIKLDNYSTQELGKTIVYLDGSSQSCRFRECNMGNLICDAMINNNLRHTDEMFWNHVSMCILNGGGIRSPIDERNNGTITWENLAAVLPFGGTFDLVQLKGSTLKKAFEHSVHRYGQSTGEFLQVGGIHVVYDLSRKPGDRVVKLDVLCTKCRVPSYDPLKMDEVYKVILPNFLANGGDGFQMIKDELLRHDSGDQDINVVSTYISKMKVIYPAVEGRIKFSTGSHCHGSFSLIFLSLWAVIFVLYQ

Take `CC(CN1CCOCC1)(OC[C@H]1O[C@@H](n2ncc3c(NC4CCCC4)nc(Cl)nc32)[C@H](O)[C@@H]1O)P(=O)(O)O` (stereo partly drawn) [Example 71, (2-(((2R,3S,4R,5R)-5-(6-chloro-4-(cyclopentylamino)-1H-pyrazolo[3,4-d]pyrimidin-1-yl)-3,4-dihydroxytetrahydrofuran-2-yl)methoxy)-1-morpholinopropan-2-yl)phosphonic acid]: the pIC50 is less than 6.00.

With `CCS(=O)(=O)C[C@@](C)(OC[C@H]1O[C@@H](n2ncc3c(NC4CCCC4)nc(Cl)nc32)[C@H](O)[C@@H]1O)P(=O)(O)O` [Example 138, ((S)-2-(((2R,3S,4R,5R)-5-(6-chloro-4-(cyclopentylamino)-1H-pyrazolo[3,4-d]pyrimidin-1-yl)-3,4-dihydroxytetrahydrofuran-2-yl)methoxy)-1-(ethylsulfonyl)propan-2-yl)phosphonic acid], the pIC50 is no less than 7.00. Compound `CC#CC[C@@](CO)(OC[C@H]1O[C@@H](n2ncc3c(NC4CCCC4)nc(Cl)nc32)[C@H](O)[C@@H]1O)P(=O)(O)O` [Example 97, ((R)-2-(((2R,3S,4R,5R)-5-(6-chloro-4-(cyclopentylamino)-1H-pyrazolo[3,4-d]pyrimidin-1-yl)-3,4-dihydroxytetrahydrofuran-2-yl)methoxy)-1-hydroxyhex-4-yn-2-yl)phosphonic acid] gave a pIC50 of no less than 7.00. The figure for `COCC(C)(OC[C@H]1O[C@@H](n2ncc3c(NC4CCC4)nc(Cl)nc32)[C@H](O)[C@@H]1O)P(=O)(O)O` (stereo partly drawn) [Example 159, (2-(((2R,3S,4R,5R)-5-(6-chloro-4-(cyclobutylamino)-1H-pyrazolo[3,4-d]pyrimidin-1-yl)-3,4-dihydroxytetrahydrofuran-2-yl)methoxy)-1-methoxypropan-2-yl)phosphonic acid] is no less than 7.00. The figure for `CCOCC(COCC)(OC[C@H]1O[C@@H](n2ncc3c(NC4CCCC4)nc(Cl)nc32)[C@H](O)[C@@H]1O)P(=O)(O)O` (racemic) [Example 185, rac-(2-(((2R,3S,4R,5R)-5-(6-chloro-4-(cyclopentylamino)-1H-pyrazolo[3,4-d]pyrimidin-1-yl)-3,4-dihydroxytetrahydrofuran-2-yl)methoxy)-1,3-diethoxypropan-2-yl)phosphonic acid] is no less than 7.00. As for `COCC(C)(OC[C@H]1O[C@@H](n2ncc3c(NCC4CC4)nc(Cl)nc32)[C@H](O)[C@@H]1O)P(=O)(O)O` (stereo partly drawn) [Example 79, (2-(((2R,3S,4R,5R)-5-(6-chloro-4-((cyclopropylmethyl)amino)-1H-pyrazolo[3,4-d]pyrimidin-1-yl)-3,4-dihydroxytetrahydrofuran-2-yl)methoxy)-1-methoxypropan-2-yl)phosphonic acid], the figure is no less than 7.00. As for `C[C@H](O)[C@H](OC[C@H]1O[C@@H](n2ncc3c(NC4CCCC4)nc(Cl)nc32)[C@H](O)[C@@H]1O)P(=O)(O)O` [Example 12, ((1R,2S)-1-(((2R,3S,4R,5R)-5-(6-chloro-4-(cyclopentylamino)-1H-pyrazolo[3,4-d]pyrimidin-1-yl)-3,4-dihydroxytetrahydrofuran-2-yl)methoxy)-2-hydroxypropyl)phosphonic acid], the pIC50 was no less than 7.00. The figure for `O=P(O)(O)CS(=O)(=O)C[C@H]1O[C@@H](n2nnc3c(N[C@@H]4CCc5ccccc54)cc(Cl)nc32)[C@H](O)[C@@H]1O` [Example 83] is no less than 7.00; for `C[C@@](CO)(OC[C@H]1O[C@@H](n2ncc3c(NC4CCCC4)cc(Cl)nc32)[C@H](O)[C@@H]1O)P(=O)(O)O` (racemic) [Example 194, rac-((R)-2-(((2R,3S,4R,5R)-5-(6-chloro-4-(cyclopentylamino)-1H-pyrazolo[3,4-b]pyridin-1-yl)-3,4-dihydroxytetrahydrofuran-2-yl)methoxy)-1-hydroxypropan-2-yl)phosphonic acid] it is no less than 7.00. `C[C@H](O)COc1nc(NC2CCCC2)c2cnn([C@@H]3O[C@H](COC(CO)(CO)P(=O)(O)O)[C@@H](O)[C@H]3O)c2n1` (racemic) [Example 181, rac-(2-(((2R,3S,4R,5R)-5-(4-(cyclopentylamino)-6-((S)-2-hydroxypropoxy)-1H-pyrazolo[3,4-d]pyrimidin-1-yl)-3,4-dihydroxytetrahydrofuran-2-yl)methoxy)-1,3-dihydroxypropan-2-yl)phosphonic acid] showed a negative-log IC50 (pIC50) of no less than 7.00. For `CC(CO)(OC[C@H]1O[C@@H](n2ncc3c(N[C@@H]4CCc5ccccc54)nc(Cl)nc32)[C@H](O)[C@@H]1O)P(=O)(O)O` (stereo partly drawn) [Example 61, (2-(((2R,3S,4R,5R)-5-(6-chloro-4-(((R)-2,3-dihydro-1H-inden-1-yl)amino)-1H-pyrazolo[3,4-d]pyrimidin-1-yl)-3,4-dihydroxytetrahydrofuran-2-yl)methoxy)-1-hydroxypropan-2-yl)phosphonic acid], the pIC50 was no less than 7.00. As for `COCC(C)(OC[C@H]1O[C@H](n2nnc3c(N[C@@H]4CCc5ccccc54)nc(Cl)nc32)[C@H](O)[C@@H]1O)P(=O)(O)O` (stereo partly drawn) [Example 154, (2-(((2R,3S,4R,5S)-5-(5-chloro-7-(((R)-2,3-dihydro-1H-inden-1-yl)amino)-3H-[1,2,3]triazolo[4,5-d]pyrimidin-3-yl)-3,4-dihydroxytetrahydrofuran-2-yl)methoxy)-1-methoxypropan-2-yl)phosphonic acid], the figure is no less than 7.00; as for `O=P(O)(O)[C@@](CO)(Cc1nn[nH]n1)OC[C@H]1O[C@@H](n2ncc3c(NCC4CC4)nc(Cl)nc32)[C@H](O)[C@@H]1O` (racemic) [Example 197, rac-((R)-2-(((2R,3S,4R,5R)-5-(6-chloro-4-((cyclopropylmethyl)amino)-1H-pyrazolo[3,4-d]pyrimidin-1-yl)-3,4-dihydroxytetrahydrofuran-2-yl)methoxy)-1-hydroxy-3-(2H-tetrazol-5-yl)propan-2-yl)phosphonic acid], no less than 7.00.

Take `C[C@@](CO)(OC[C@H]1O[C@@H](n2ncc3c(N[C@@H]4CC[C@H]5CCC[C@H]54)nc(Cl)nc32)[C@H](O)[C@@H]1O)P(=O)(O)O` (racemic) [Example 182, rac-((R)-2-(((2R,3S,4R,5R)-5-(6-chloro-4-(((1R,3aR,6aR)-octahydropentalen1-yl)amino)-1H-pyrazolo[3,4-d]pyrimidin-1-yl)-3,4-dihydroxytetrahydrofuran-2-yl)methoxy)-1-hydroxypropan-2-yl)phosphonic acid]: the pIC50 was no less than 7.00. As for `COC[C@@](C)(OC[C@H]1O[C@@H](n2nnc3c(NC4CCCC4)nc(Cl)nc32)[C@H](O)[C@@H]1O)P(=O)(O)O` [Example 109, ((S)-2-(((2R,3S,4R,5R)-5-(5-chloro-7-(cyclopentylamino)-3H-[1,2,3]triazolo[4,5-d]pyrimidin-3-yl)-3,4-dihydroxytetrahydrofuran-2-yl)methoxy)-1-methoxypropan-2-yl)phosphonic acid], the figure is no less than 7.00. `O=P(O)(O)[C@](CO)(Cc1ncco1)OC[C@H]1O[C@@H](n2ncc3c(NC4CCCC4)nc(Cl)nc32)[C@H](O)[C@@H]1O` [Example 92, ((S)-2-(((2R,3S,4R,5R)-5-(6-chloro-4-(cyclopentylamino)-1H-pyrazolo[3,4-d]pyrimidin-1-yl)-3,4-dihydroxytetrahydrofuran-2-yl)methoxy)-1-hydroxy-3-(oxazol-2-yl)propan-2-yl)phosphonic acid] had a pIC50 of no less than 7.00.

What is called pIC50 is the negative decadic logarithm of the IC50, by convention in mol/L. Low readings indicate a high IC50, high ones a low IC50.
